In general, IC50 refers to the concentration at which inhibition is half-maximal.

pIC50: −log10 of the molar value. Several values for one entry are separate records, joined by “and”; a condition that tells them apart may be missing. Equal values may be shown once. Read-outs that look alike come from different tables or passages of the source.

These results are taken from patent US11339157B1, “4H-pyrrolo[3,2-c]pyridin-4-one derivatives” (Bayer Aktiengesellschaft, priority 2017, dated 2022).

Test [1] addresses EGFR ins SVD (insertion of SVD between D770 and N771) (Homo sapiens, UniProt P00533, INS767SVD). Briefly: Exon 20-Mutant-EGFR(D770_N771insSVD) kinase assay (TR-FRET). Format: biochemical. A general note: TR-FRET usually uses a lanthanide donor and a delayed reading to cut background.
Protocol: Exon 20-Mutant-EGFR(D770_N771insSVD) Kinase Assay
Inhibitory activity of compounds of the present invention against an Epidermal Growth Factor Receptor (EGFR) with an insertion of the amino acids sequence SVD between D770 and N771 was quantified employing the TR-FRET based kinase activity assay as described in the following paragraphs.
For the assay 50 nl of a 100-fold concentrated solution of the test compound in DMSO was pipetted into either a black low volume 384 well microtiter plate or a black 1536 well microtiter plate (both Greiner Bio-One, Frickenhausen, Germany), 2 μl of a solution of EGFR in aqueous assay buffer [50 mM Hepes pH 7.0, 10 mM MgCl2, 1 mM dithiothreitol, 0.5 mM EGTA, 0.3 mM activated sodium ortho-vanadate, 0.005% (w/v) bovine serum albumin, 0.005% (v/v) Tween-20] were added and the mixture was incubated for 15 min at 22° C. to allow pre binding of the test compounds to the enzyme before the start of the kinase reaction. […] The concentration of EGFR was adjusted depending of the activity of the enzyme lot and was chosen appropriate to have the assay in the linear range, typical concentration was 15 pg/μl. The reaction was stopped by the addition of 3 μl of a solution of HTRF detection reagents (83.3 nM streptavidine-XL665 [Cisbio Bioassays, Codolet, France] and 1.67 nM PT66-Tb-Cryptate, a terbium-cryptate labelled anti-phospho-tyrosine antibody from Cisbio Bioassays [instead of the PT66 Tb cryptate PT66 Eu Chelate from Perkin Elmer can also be used]) in an aqueous EDTA-solution (133.3 mM EDTA, 0.2% (w/v) bovine serum albumin in 50 mM HEPES pH 7.5).
(§2) The resulting mixture was incubated 1 h at 22° C. to allow the binding of the biotinylated phosphorylated peptide to the streptavidine-XL665 and the PT66-Tb-Cryptate. Subsequently the amount of phosphorylated substrate was evaluated by measurement of the resonance energy transfer from the PT66-Tb-Cryptate to the streptavidine-XL665.
The next test concerns the target Bub1 (Homo sapiens (Human), UniProt O43683). Briefly: Bub1 kinase assay (TR-FRET, 10 μM ATP). Particulars: mean, read-out: Bub1 kinase assay IC50 [mol/l] (mean). The format is biochemical. An excerpt:
Bub1-inhibitory activities of compounds described in the present invention were quantified using a time-resolved fluorescence energy transfer (TR-FRET) kinase assay which measures phosphorylation of the synthetic peptide Biotin-Ahx-[…]—SEQ ID NO: 5 (C-terminus in amide form), purchased from e.g. Biosyntan (Berlin, Germany) by the (recombinant) catalytic domain of human Bub1 (amino acids 704-1085), expressed in Hi5 insect cells with an N-terminal His6-tag (SEQ ID NO: 9) and purified by affinity-(Ni-NTA) and size exclusion chromatography.
In a typical assay 11 different concentrations of each compound (0.1 nM, 0.33 nM, 1.1 nM, 3.8 nM, 13 nM, 44 nM, 0.15 μM, 0.51 μM, 1.7 μM, 5.9 μM and 20 μM) were tested in duplicate within the same microtiter plate. To this end, 100-fold concentrated compound solutions (in DMSO) were previously prepared by serial dilution (1:3.4) of 2 mM stocks in a clear low volume 384-well source microtiter plate (Greiner Bio-One, Frickenhausen, Germany), from which 50 nl of compounds were transferred into a black low volume test microtiter plate from the same supplier. […] The resulting mixture (5 μl final volume) was incubated at 22° C. during 60 min., and the reaction was stopped by the addition of 5 μl of an aqueous EDTA-solution (50 mM EDTA, in 100 mM HEPES pH 7.5 and 0.2% (w/v) bovine serum albumin) which also contained the TR-FRET detection reagents (0.2 μM streptavidin-XL665 [Cisbio Bioassays, Codolet, France] and 1 nM anti-phosho-Serine antibody [Merck Millipore, cat. #35-002] and 0.4 nM LANCE EU-W1024 labeled anti-mouse IgG antibody [Perkin-Elmer, product no. AD0077, alternatively a Terbium-cryptate-labeled anti-mouse IgG antibody from Cisbio Bioassays can be used]). The stopped reaction mixture was further incubated 1 h at 22° C. in order to allow the formation of complexes between peptides and detection reagents. Subsequently, the amount of product was evaluated by measurement of the resonance energy transfer from the Eu-chelate-antibody complex recognizing the Phosphoserine residue to the streptavidin-XL665 bound to the biotin moiety of the peptide. To this end, the fluorescence emissions at 620 nm and 665 nm after excitation at 330-350 nm were measured in a TR-FRET plate reader, e.g. a Rubystar or Pherastar (both from BMG Labtechnologies, Offenburg, Germany) or a Viewlux (Perkin-Elmer) and the ratio of the emissions (665 nm/[…]) was taken as indicator for the amount of phosphorylated substrate. The data were normalised using two sets of control wells for high-(=enzyme reaction without inhibitor=0%=Minimum inhibition) and low-(=all assay components without enzyme=100%=Maximum inhibition) Bub1 activity. IC50 values were calculated by fitting the normalized inhibition data to a 4-parameter logistic equation (Minimum, Maximum, IC50, Hill; Y=Max+(Min−Max)/(1+(X/IC50)Hill)).

A further test deals with Ba/F3-EGFR-WT cells. Briefly: Proliferation assay in BA/F3 (wild type) cells (Cell Titer-Glo). Format: cell-based. Particulars: Mus musculus. The procedure, abridged:
(§1)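 Ba/F3 cells stably expressing retrovirally transduced EGFR-WT or EGFR-insSVD; WT cells plated with 10 ng/mL EGF, insSVD cells without EGF. Compound exposure 48 h at 37° C; viability read by CellTiter-Glo luminescence.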
(Cellular ATP, detected with luciferase, serves as a proxy for viable cell number.)

The next test has as its system Ba/F3-EGFR-insSVD cells. The experiment in a line: Proliferation assay in BA/F3 (ins SVD) cells (Cell Titer-Glo). The format is cell-based. In short, it runs like this:
as §1

In test [2] the target is EGFR ins ASV (insertion of ASV between V769 and D770). Briefly: Exon 20-Mutant-EGFR(V769_D770insASV) kinase assay (TR-FRET). Particulars: 2 mM ATP. Format: biochemical, human.
Protocol: Exon 20-Mutant-EGFR(V769_D770insASV) Kinase Assay
Inhibitory activity of compounds of the present invention against an Epidermal Growth Factor Receptor (EGFR) with an insertion of the amino acids sequence ASV between V769 and D770 was quantified employing the TR-FRET based kinase activity assay as described in the following paragraphs.
For the assay 50 nl of a 100-fold concentrated solution of the test compound in DMSO was pipetted into either a black low volume 384well microtiter plate or a black 1536 well microtiter plate (both Greiner Bio-One, Frickenhausen, Germany), 2 μl of a solution of EGFR in aqueous assay buffer [50 mM Hepes pH 7.0, 10 mM MgCl2, 1 mM dithiothreitol, 0.5 mM EGTA, 0.3 mM activated sodium ortho-vanadate, 0.005% (w/v) bovine serum albumin, 0.005% (v/v) Tween-20] were added and the mixture was incubated for 15 min at 22° C. to allow pre binding of the test compounds to the enzyme before the start of the kinase reaction. […] The concentration of EGFR was adjusted depending of the activity of the enzyme lot and was chosen appropriate to have the assay in the linear range, typical concentration was 2.5 pg/μl. The reaction was stopped by the addition of 3 μl of a solution of HTRF detection reagents (83.3 nM streptavidine-XL665 [Cisbio Bioassays, Codolet, France] and 1.67 nM PT66-Tb-Cryptate, an terbium-cryptate labelled anti-phospho-tyrosine antibody from Cisbio Bioassays [instead of the PT66 Tb cryptate PT66 Eu Chelate from Perkin Elmer can also be used]) in an aqueous EDTA-solution (133.3 mM EDTA, 0.2% (w/v) bovine serum albumin in 50 mM HEPES pH 7.5).
as §2
[3] abbreviates: 2 mM ATP, mean, read-out: EGFR ins SVD IC50 [mol/l] (mean).
Setting [4] is: Table 9, read-out: mutEGFR (D770_N771insSVD) kinase assay IC50.
Setting [5] is: BaF3, Table 10, plated with 10 ng/mL EGF, 48 h.
Setting [6] is: Mus musculus, BaF3, Table 10, plated without EGF, 48 h.
The mark [7] stands for this setting: BaF3, 48 h, Table 10, plated with 10 ng/mL EGF.
[8] abbreviates: Mus musculus, BaF3, 48 h, Table 10, plated without EGF.

Chain of Bub1 (O43683 704-1085): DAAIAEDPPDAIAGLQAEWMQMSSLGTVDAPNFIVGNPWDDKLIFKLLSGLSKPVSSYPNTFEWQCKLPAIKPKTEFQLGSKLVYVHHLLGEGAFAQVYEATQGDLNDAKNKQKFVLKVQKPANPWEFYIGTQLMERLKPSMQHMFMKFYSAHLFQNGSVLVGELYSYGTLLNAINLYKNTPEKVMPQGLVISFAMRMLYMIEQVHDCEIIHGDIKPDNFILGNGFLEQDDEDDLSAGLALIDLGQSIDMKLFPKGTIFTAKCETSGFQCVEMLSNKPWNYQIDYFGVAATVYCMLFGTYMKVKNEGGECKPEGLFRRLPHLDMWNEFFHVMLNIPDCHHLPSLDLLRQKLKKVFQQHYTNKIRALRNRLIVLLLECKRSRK
Chain of EGFR ins SVD (insertion of SVD between D770 and N771) (P00533 with tags, fused parts or gaps INS767SVD limits assumed): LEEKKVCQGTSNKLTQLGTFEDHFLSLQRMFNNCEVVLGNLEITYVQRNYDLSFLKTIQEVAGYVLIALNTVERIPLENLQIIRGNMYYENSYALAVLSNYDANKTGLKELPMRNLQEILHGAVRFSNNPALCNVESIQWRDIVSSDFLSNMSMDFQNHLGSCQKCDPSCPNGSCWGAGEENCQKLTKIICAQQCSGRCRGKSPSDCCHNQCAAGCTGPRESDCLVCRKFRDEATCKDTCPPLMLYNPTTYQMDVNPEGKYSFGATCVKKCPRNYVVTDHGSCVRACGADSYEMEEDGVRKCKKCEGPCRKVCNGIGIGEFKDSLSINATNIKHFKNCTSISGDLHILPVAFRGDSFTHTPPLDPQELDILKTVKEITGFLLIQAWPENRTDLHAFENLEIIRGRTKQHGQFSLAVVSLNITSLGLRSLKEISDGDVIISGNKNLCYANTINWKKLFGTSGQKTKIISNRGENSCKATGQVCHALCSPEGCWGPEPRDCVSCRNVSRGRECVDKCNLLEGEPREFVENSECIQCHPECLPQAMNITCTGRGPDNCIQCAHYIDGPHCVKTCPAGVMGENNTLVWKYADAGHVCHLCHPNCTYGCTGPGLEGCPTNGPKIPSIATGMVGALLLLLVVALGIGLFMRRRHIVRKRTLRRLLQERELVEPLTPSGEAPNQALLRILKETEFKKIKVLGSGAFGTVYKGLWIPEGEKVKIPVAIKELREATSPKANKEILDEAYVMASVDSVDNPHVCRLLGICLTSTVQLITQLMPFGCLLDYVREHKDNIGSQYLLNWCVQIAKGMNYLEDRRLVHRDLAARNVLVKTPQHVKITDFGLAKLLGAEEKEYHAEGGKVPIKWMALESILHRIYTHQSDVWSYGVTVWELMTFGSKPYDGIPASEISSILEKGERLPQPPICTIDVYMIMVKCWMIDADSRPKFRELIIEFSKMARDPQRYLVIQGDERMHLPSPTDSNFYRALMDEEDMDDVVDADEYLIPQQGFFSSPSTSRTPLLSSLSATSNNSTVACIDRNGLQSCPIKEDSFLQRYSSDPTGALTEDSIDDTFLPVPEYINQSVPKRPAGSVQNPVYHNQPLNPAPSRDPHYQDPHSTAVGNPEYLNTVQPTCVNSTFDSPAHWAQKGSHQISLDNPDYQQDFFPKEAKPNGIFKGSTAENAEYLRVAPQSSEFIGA

As to `CN1CCC[C@H]1COc1cnccc1-c1[nH]c2c(c1Nc1cccc(F)c1)C(=O)NCC2` [Example 8, 3-[(3-fluorophenyl)amino]-2-(3-{[(2S)-1-methylpyrrolidin-2-yl]methoxy}pyridin-4-yl)-1,5,6,7-tetrahydro-4H-pyrrolo[3,2-c]pyridin-4-one], the pIC50 in test [1] (setting [3]) was 9.51; in test [1] (setting [4]), 9.49; on Bub1, 7.18; in the test with Ba/F3-EGFR-WT cells (setting [5]) it was 6.21; in the test with Ba/F3-EGFR-insSVD cells (setting [6]), 7.16.
Turning to `COC(C)(C)COc1cnccc1-c1[nH]c2c(c1Nc1cc(F)cc(F)c1)C(=O)NCC2` [Example 10, 3-[(3,5-difluorophenyl)amino]-2-[3-(2-methoxy-2-methylpropoxy)pyridin-4-yl]-1,5,6,7-tetrahydro-4H-pyrrolo[3,2-c]pyridin-4-one], the pIC50 in test [1] (setting [3]) was over 10.14; at Bub1, 7.91; with Ba/F3-EGFR-WT cells (setting [7]), 6.45; in the test with Ba/F3-EGFR-insSVD cells (setting [8]), 7.24. Further, the IC50 in test [1] (setting [4]) was < 0.0725 nM (4×) and 0.133 nM.
As to `COCCOc1cnccc1-c1[nH]c2c(c1Nc1cccc(F)c1OC)C(=O)NCC2` [Example 16, 3-[(3-fluoro-2-methoxyphenyl)amino]-2-[3-(2-methoxyethoxy)pyridin-4-yl]-1,5,6,7-tetrahydro-4H-pyrrolo[3,2-c]pyridin-4-one], the pIC50 was 6.84 at Bub1, 6.34 with Ba/F3-EGFR-WT cells (setting [7]) and 7.62 in the test with Ba/F3-EGFR-insSVD cells (setting [8]).
In the case of `CC(C)(C)CCOc1cnccc1-c1[nH]c2c(c1Nc1cccc(F)c1)C(=O)NCC2` [Example 2, 2-[3-(3,3-dimethylbutoxy)pyridin-4-yl]-3-[(3-fluorophenyl)amino]-1,5,6,7-tetrahydro-4H-pyrrolo[3,2-c]pyridin-4-one], the pIC50 at Bub1 is 7.36; with Ba/F3-EGFR-WT cells (setting [7]), 5.73; in the test with Ba/F3-EGFR-insSVD cells (setting [8]), 8.17; in the test on Ba/F3-EGFR-insSVD cells (Table 10, plated without EGF, 48 h), 8.13 and 8.06 and > 8.32.
Take `COC(C)(C)COc1cnccc1-c1[nH]c2c(c1Nc1cccc(F)c1O)C(=O)NCC2` [Example 24, 3-[(3-fluoro-2-hydroxyphenyl)amino]-2-[3-(2-methoxy-2-methylpropoxy)pyridin-4-yl]-1,5,6,7-tetrahydro-4H-pyrrolo[3,2-c]pyridin-4-one]: the pIC50 in test [1] (setting [3]) and in test [1] (setting [4]) was 9.27 throughout. Also, the “EGFR ins ASV IC50 [mol] (mean)” value in test [2] is 6.34e-10 mol.
Turning to `COCCOc1cnccc1-c1[nH]c2c(c1Nc1ccccc1OC(F)(F)F)C(=O)NCC2` [Example 14, 2-[3-(2-methoxyethoxy)pyridin-4-yl]-3-{[2-(trifluoromethoxy)phenyl]amino}-1,5,6,7-tetrahydro-4H-pyrrolo[3,2-c]pyridin-4-one], the pIC50 on Bub1 is 6.15; in the test on Ba/F3-EGFR-WT cells (setting [7]), 5.60; in the test on Ba/F3-EGFR-insSVD cells (setting [8]), 5.98.
In the case of `COCCOc1cnccc1-c1[nH]c2c(c1Nc1ccccc1)C(=O)NCC2` [Example 1, 2-[3-(2-methoxyethoxy)pyridin-4-yl]-3-(phenylamino)-1,5,6,7-tetrahydro-4H-pyrrolo[3,2-c]pyridin-4-one], on Bub1, the pIC50 was 7.84.
As for `CCOc1c(F)cccc1Nc1c(-c2ccncc2OCCOC)[nH]c2c1C(=O)NCC2` [Example 25, 3-[(2-ethoxy-3-fluorophenyl)amino]-2-[3-(2-methoxyethoxy)pyridin-4-yl]-1,5,6,7-tetrahydro-4H-pyrrolo[3,2-c]pyridin-4-one], the results for the pIC50 at Bub1 and in the test with Ba/F3-EGFR-WT cells (setting [7]) were 6.64 and 5.64, respectively.
With `COc1c(Nc2c(-c3ccncc3OCC(C)(C)OC)[nH]c3c2C(=O)NCC3)ccc(F)c1F` [Example 29, 3-[(3,4-difluoro-2-methoxyphenyl)amino]-2-[3-(2-methoxy-2-methylpropoxy)pyridin-4-yl]-1,5,6,7-tetrahydro-4H-pyrrolo[3,2-c]pyridin-4-one], the pIC50 on Bub1 was 6.70; in the test with Ba/F3-EGFR-WT cells (setting [7]), 5.63; with Ba/F3-EGFR-insSVD cells (setting [8]) it was 6.64.
Take `CC(C)(COc1cnccc1-c1[nH]c2c(c1Nc1cccc(F)c1)C(=O)NCC2)N1CCOCC1` [Example 7, 3-[(3-fluorophenyl)amino]-2-{3-[2-methyl-2-(morpholin-4-yl)propoxy]pyridin-4-yl}-1,5,6,7-tetrahydro-4H-pyrrolo[3,2-c]pyridin-4-one]: the pIC50 in test [1] (setting [3]) was 9.14; in test [1] (setting [4]) it was 8.95; at Bub1, 6.40; in the test on Ba/F3-EGFR-WT cells (setting [5]), 5.57; with Ba/F3-EGFR-insSVD cells (setting [6]), 6.34.
Regarding `COCCOc1cnccc1-c1[nH]c2c(c1Nc1cccc(F)c1Br)C(=O)NCC2` [Example 12, 3-[(2-bromo-3-fluorophenyl)amino]-2-[3-(2-methoxyethoxy)pyridin-4-yl]-1,5,6,7-tetrahydro-4H-pyrrolo[3,2-c]pyridin-4-one], the pIC50 in test [1] (setting [3]) and in test [1] (setting [4]) was 10.07 each time. Further, the “EGFR ins ASV IC50 [mol] (mean)” value in test [2] amounted to 2.18e-10 mol.
As to `COCCOc1cnccc1-c1[nH]c2c(c1Nc1cccc(F)c1OC(F)F)C(=O)NCC2` [Example 18, 3-{[2-(difluoromethoxy)-3-fluorophenyl]amino}-2-[3-(2-methoxyethoxy)pyridin-4-yl]-1,5,6,7-tetrahydro-4H-pyrrolo[3,2-c]pyridin-4-one], at Bub1, the pIC50 is 6.43.
`COCCOc1cnccc1-c1[nH]c2c(c1Nc1cccc(F)c1CC(F)F)C(=O)NCC2` [Example 22, 3-{[2-(2,2-difluoroethyl)-3-fluorophenyl]amino}-2-[3-(2-methoxyethoxy)pyridin-4-yl]-1,5,6,7-tetrahydro-4H-pyrrolo[3,2-c]pyridin-4-one]: the results for the pIC50 on Bub1, in the test on Ba/F3-EGFR-WT cells (setting [7]) and in the test with Ba/F3-EGFR-insSVD cells (setting [8]) were 6.95, 5.81 and 6.94, respectively.
For the molecule `COc1c(F)cccc1Nc1c(-c2ccncc2OCCN2CCOCC2)[nH]c2c1C(=O)NCC2` [Example 84, 3-(3-fluoro-2-methoxyanilino)-2-{3-[2-(morpholin-4-yl)ethoxy]pyridin-4-yl}-1,5,6,7-tetrahydro-4H-pyrrolo[3,2-c]pyridin-4-one], the pIC50 was 9.65 in test [1] (setting [4]), 5.66 in the test with Ba/F3-EGFR-WT cells (setting [5]) and 6.73 with Ba/F3-EGFR-insSVD cells (setting [6]).
On to `COc1c(F)cccc1Nc1c(-c2ccncc2OC[C@@H](C)OC)[nH]c2c1C(=O)NCC2` [Example 92, 3-(3-fluoro-2-methoxyanilino)-2-{3-[(2R)-2-methoxypropoxy]pyridin-4-yl}-1,5,6,7-tetrahydro-4H-pyrrolo[3,2-c]pyridin-4-one], for which the pIC50 in test [1] (setting [4]) was 9.93; in the test with Ba/F3-EGFR-WT cells (setting [7]), 6.51; in the test on Ba/F3-EGFR-insSVD cells (setting [8]), 7.98.
On the same counts, the results for `CN(C)CCOc1cnccc1-c1[nH]c2c(c1Nc1cccc(F)c1OC(F)F)C(=O)NCC2` [Example 64, 3-[2-(difluoromethoxy)-3-fluoroanilino]-2-{3-[2-(dimethylamino)ethoxy]pyridin-4-yl}-1,5,6,7-tetrahydro-4H-pyrrolo[3,2-c]pyridin-4-one] are 9.35, 5.72 and 6.92.
In the case of `Cc1c(F)cccc1Nc1c(-c2ccncc2OCCN(C)C)[nH]c2c1C(=O)NCC2` [Example 56, 2-{3-[2-(dimethylamino)ethoxy]pyridin-4-yl}-3-(3-fluoro-2-methylanilino)-1,5,6,7-tetrahydro-4H-pyrrolo[3,2-c]pyridin-4-one], the pIC50 in test [1] (setting [4]) was 9.25; in the test with Ba/F3-EGFR-WT cells (setting [7]), 5.72; in the test with Ba/F3-EGFR-insSVD cells (setting [8]), 6.62.
With `COc1c(Cl)cccc1Nc1c(-c2ccncc2OCC2CCCCO2)[nH]c2c1C(=O)NCC2` (centres unmarked) [Example 68], the pIC50 in test [1] (setting [4]) is 9.94; with Ba/F3-EGFR-WT cells (setting [7]) it was 6.96; with Ba/F3-EGFR-insSVD cells (setting [8]), 8.53.
